According to ChEMBL document CHEMBL4420062, “Tfpi inhibitors and methods of use” (2013):
Where a SMILES comes first, the peptide text is derived from it. [ ]: non-standard residue; d: D form. Aib = CC(C)(N)C(=O)O

What was measured:
[1] = Stability in mouse plasma assessed as parent compound remaining after 24 hrs; assay type: ADME, cell-free; settings: read-out: Stability
[2] = Stability in human plasma assessed as parent compound remaining after 24 hrs; assay type: ADME, cell-free; settings: read-out: Stability
[3] = biological target: T1, Tissue factor pathway inhibitor (Homo sapiens, UniProt P10646); experiment: Binding affinity to TFPI (unknown origin) incubated for […] using tracer peptide JBT0131 by screening ELISA
T1 sequence (P10646 whole entry): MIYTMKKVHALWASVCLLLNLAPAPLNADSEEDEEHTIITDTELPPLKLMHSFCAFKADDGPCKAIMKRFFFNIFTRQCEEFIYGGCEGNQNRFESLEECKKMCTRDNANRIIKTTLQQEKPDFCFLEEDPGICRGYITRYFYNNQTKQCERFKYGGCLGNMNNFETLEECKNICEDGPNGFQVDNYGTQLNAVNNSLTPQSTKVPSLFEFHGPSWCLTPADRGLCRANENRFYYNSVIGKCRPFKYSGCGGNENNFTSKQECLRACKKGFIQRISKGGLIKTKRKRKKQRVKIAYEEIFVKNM

Molecule	remaining at 24 h [1] [%]	remaining at 24 h [2] [%]	IC50 [3] [µM]
CCCC[C@H](NC(=O)C(C)(C)NC(=O)[C@H](CC(C)C)NC(=O)[C@H](CCCNC(=N)N)NC(=O)[C@H](CCC(=O)O)NC(=O)[C@H](Cc1ccccc1)NC(=O)[C@H](Cc1ccc(O)cc1)NC(=O)CNC(=O)[C@H](CC(=O)O)NC(=O)[C@@H](NC(=O)[C@H](Cc1cnc[nH]1)NC(=O)[C@@H](NC(=O)[C@H](CC(N)=O)NC(=O)[C@H]1CCCN1C(=O)[C@H](CCCCN)NC(=O)[C@H](CO)NC(=O)[C@H](CCC(N)=O)NC(=O)[C@H](Cc1ccccc1)NC(C)=O)C(C)C)C(C)(C)C)C(=O)N[C@@H](CCCCN)C(=O)N[C@@H](CC(C)C)C(N)=O	17	90.1	
CC(=O)N[C@@H](Cc1ccccc1)C(=O)N[C@@H](CCC(N)=O)C(=O)N[C@@H](CO)C(=O)N[C@@H](CCCCN)C(=O)N1CCC[C@@H]1C(=O)N[C@@H](CC(N)=O)C(=O)N[C@H](C(=O)N[C@@H](Cc1cnc[nH]1)C(=O)N[C@H](C(=O)N1CCC[C@H]1C(=O)N[C@H](CS)C(=O)N[C@@H](Cc1ccc(O)cc1)C(=O)N[C@@H](Cc1csc2ccccc12)C(=O)N[C@@H](CCS)C(=O)N[C@@H](CCCNC(=N)N)C(=O)N[C@@H](CC(C)C)C(=O)NC(C)(C)C(=O)N[C@H](C)C(=O)N[C@@H](CCCCN)C(=O)N[C@@H](CC(C)C)C(N)=O)C(C)C)C(C)C	28.3	77.7	
CC(=O)NCSC[C@H](NC(=O)[C@H]1CCCN1C(=O)[C@H](CCCCN)NC(=O)[C@H](CO)NC(=O)[C@H](CCC(N)=O)NC(=O)[C@H](Cc1ccccc1)NC(C)=O)C(=O)N[C@H](C(=O)N[C@@H](Cc1cnc[nH]1)C(=O)N[C@H](C(=O)N[C@@H](CC(=O)O)C(=O)N[C@H](C)C(=O)N[C@@H](Cc1ccc(O)cc1)C(=O)N[C@@H](Cc1ccccc1)C(=O)N[C@@H](CCC(=O)O)C(=O)N[C@@H](CCCNC(=N)N)C(=O)N[C@@H](CC(C)C)C(=O)NC(C)(C)C(=O)N[C@@H](C)C(=O)N[C@@H](CCCCN)C(=O)N[C@@H](CC(C)C)C(N)=O)C(C)(C)C)C(C)C	43	86.2	
CC(=O)N[C@@H](Cc1csc2ccccc12)C(=O)N[C@@H](CCC(N)=O)C(=O)N[C@@H](CO)C(=O)N[C@@H](CCCCN)C(=O)N1CCC[C@@H]1C(=O)N[C@@H](CC(N)=O)C(=O)N[C@H](C(=O)N[C@@H](Cc1cnc[nH]1)C(=O)N[C@H](C(=O)N[C@@H](CC(=O)O)C(=O)NCC(=O)N[C@@H](Cc1ccc(O)cc1)C(=O)N[C@@H](Cc1ccccc1)C(=O)N[C@@H](CCC(=O)O)C(=O)N[C@@H](CCCNC(=N)N)C(=O)N[C@@H](CC(C)C)C(=O)NC(C)(C)C(=O)N[C@@H](C)C(=O)N[C@@H](CCCCN)C(=O)N[C@@H](CC(C)C)C(N)=O)C(C)C)C(C)C	0	18.6	
CC(=O)N[C@@H](Cc1ccccc1)C(=O)N[C@@H](CCC(N)=O)C(=O)N[C@@H](CO)C(=O)N[C@@H](CCCCN)C(=O)N1CCC[C@@H]1C(=O)N[C@@H](CC(N)=O)C(=O)N[C@H](C(=O)N[C@@H](Cc1cnc[nH]1)C(=O)N[C@H](C(=O)N1CCC[C@H]1C(=O)N[C@H](C)C(=O)N[C@@H](Cc1ccc(O)cc1)C(=O)N[C@@H](Cc1ccccc1)C(=O)N[C@@H](CCC(=O)O)C(=O)N[C@@H](CCCNC(=N)N)C(=O)N[C@@H](CC(C)C)C(=O)NC(C)(C)C(=O)N[C@@H](C)C(=O)N[C@@H](CCCCN)C(=O)N[C@@H](CC(C)C)C(N)=O)C(C)C)C(C)C	27.3	99.3	
CC(=O)N[C@@H](Cc1ccccc1)C(=O)N[C@@H](CCC(N)=O)C(=O)N[C@@H](CO)C(=O)N[C@@H](CCCCN)C(=O)N1CCC[C@@H]1C(=O)N[C@@H](CC(N)=O)C(=O)N[C@H](C(=O)N[C@@H](Cc1cnc[nH]1)C(=O)N[C@H](C(=O)N[C@@H](CC(=O)O)C(=O)NCC(=O)N[C@@H](Cc1ccc(O)cc1)C(=O)N[C@@H](Cc1ccccc1)C(=O)N[C@@H](CCC(=O)O)C(=O)N[C@@H](CCCNC(=N)N)C(=O)N[C@@H](CC(C)C)C(=O)NC(C)(C)C(=O)N[C@@H](CC(C)C)C(=O)N[C@@H](CCCCN)C(=O)N[C@@H](CC(C)C)C(N)=O)C(C)(C)C)C(C)C	13.7	78.7	
CC(=O)N[C@@H](Cc1ccccc1)C(=O)N[C@@H](CCC(N)=O)C(=O)N[C@@H](CO)C(=O)N[C@@H](CCCCN)C(=O)N1CCC[C@@H]1C(=O)N[C@@H](CC(N)=O)C(=O)N[C@H](C(=O)N[C@@H](Cc1cnc[nH]1)C(=O)N[C@H](C(=O)N[C@@H](CC(=O)O)C(=O)NCC(=O)N[C@@H](Cc1ccc(O)cc1)C(=O)N[C@@H](Cc1ccccc1)C(=O)N[C@@H](CCC(=O)O)C(=O)N[C@@H](CCCNC(=N)N)C(=O)N[C@@H](CC(C)C)C(=O)NC(C)(C)C(=O)N[C@@H](C)C(=O)N[C@@H](CCCCN)C(=O)N[C@@H](CC(C)C)C(N)=O)C(C)C)C(C)C	5 to 10	10 to 27	
CC(=O)N[C@@H](Cc1ccccc1)C(=O)N[C@@H](CCC(N)=O)C(=O)N[C@@H](CO)C(=O)N[C@@H](CCCCN)C(=O)N1CCC[C@@H]1C(=O)N[C@@H](CC(N)=O)C(=O)N[C@H](C(=O)N[C@@H](Cc1cnc[nH]1)C(=O)N[C@H](C(=O)N[C@@H](CC(=O)O)C(=O)N[C@H](C)C(=O)N[C@@H](Cc1ccc(O)cc1)C(=O)N[C@@H](Cc1ccccc1)C(=O)N[C@@H](CCC(=O)O)C(=O)N[C@@H](CCCNC(=N)N)C(=O)N[C@H]1CCSSCC[C@@H](C(N)=O)NC(=O)[C@H](CCCCN)NC(=O)[C@H](C)NC(=O)C(C)(C)NC1=O)C(C)(C)C)C(C)C	65.5		
CC(=O)N[C@@H](Cc1ccccc1)C(=O)N[C@@H](CCC(N)=O)C(=O)N[C@@H](CO)C(=O)N[C@@H](CCCCN)C(=O)N1CCC[C@@H]1C(=O)N[C@@H](CC(N)=O)C(=O)N[C@H](C(=O)N[C@@H](Cc1cnc[nH]1)C(=O)N[C@H](C(=O)N[C@@H](CC(=O)O)C(=O)NCC(=O)N[C@@H](Cc1ccc(O)cc1)C(=O)N[C@@H](Cc1ccccc1)C(=O)N[C@@H](CCC(=O)O)C(=O)N[C@@H](CCCNC(=N)N)C(=O)N[C@@H](CC(C)C)C(=O)NC(C)(C)C(=O)N[C@@H](C)C(=O)N[C@@H](CCCCN)C(=O)N[C@@H](CC(C)C)C(N)=O)C(C)C)C1CCCCC1	4.1		
CCC(CC)(NC(=O)[C@H](CC(C)C)NC(=O)[C@H](CCCNC(=N)N)NC(=O)[C@H](CCC(=O)O)NC(=O)[C@H](Cc1ccccc1)NC(=O)[C@H](Cc1ccc(O)cc1)NC(=O)[C@@H](C)NC(=O)[C@H](CC(=O)O)NC(=O)[C@@H](NC(=O)[C@H](Cc1cnc[nH]1)NC(=O)[C@@H](NC(=O)[C@H](CC(N)=O)NC(=O)[C@H]1CCCN1C(=O)[C@H](CCCCN)NC(=O)[C@H](CO)NC(=O)[C@H](CCC(N)=O)NC(=O)[C@H](Cc1ccccc1)NC(C)=O)C(C)C)C(C)(C)C)C(=O)N[C@@H](C)C(=O)N[C@@H](CCCCN)C(=O)N[C@@H](CC(C)C)C(N)=O	62.9		
CC(=O)N[C@@H](Cc1ccccc1)C(=O)N[C@@H](CCC(N)=O)C(=O)N[C@@H](CO)C(=O)N[C@@H](CCCCN)C(=O)N1CCC[C@@H]1C(=O)N[C@@H](CC(N)=O)C(=O)N[C@H](C(=O)N[C@@H](Cc1cnc[nH]1)C(=O)N[C@H](C(=O)N[C@@H](CC(=O)O)C(=O)NCC(=O)N[C@@H](Cc1ccc(O)cc1)C(=O)N[C@@H](Cc1cccc2ccccc12)C(=O)N[C@@H](CCC(=O)O)C(=O)N[C@@H](CCCNC(=N)N)C(=O)N[C@@H](CC(C)C)C(=O)NC(C)(C)C(=O)N[C@@H](C)C(=O)N[C@@H](CCCCN)C(=O)N[C@@H](CC(C)C)C(N)=O)C(C)C)C(C)C	6.3		
COc1ccc(C[C@H](NC(=O)CNC(=O)[C@H](CC(=O)O)NC(=O)[C@@H](NC(=O)[C@H](Cc2cnc[nH]2)NC(=O)[C@@H](NC(=O)[C@H](CC(N)=O)NC(=O)[C@H]2CCCN2C(=O)[C@H](CCCCN)NC(=O)[C@H](CO)NC(=O)[C@H](CCC(N)=O)NC(=O)[C@H](Cc2ccccc2)NC(C)=O)C(C)C)C(C)C)C(=O)N[C@@H](Cc2ccccc2)C(=O)N[C@@H](CCC(=O)O)C(=O)N[C@@H](CCCNC(=N)N)C(=O)N[C@@H](CC(C)C)C(=O)NC(C)(C)C(=O)N[C@@H](C)C(=O)N[C@@H](CCCCN)C(=O)N[C@@H](CC(C)C)C(N)=O)cc1	7.3		
CC(=O)N[C@H](CC(C)C)C(=O)N[C@H](CCCCN)C(=O)N[C@H](C)C(=O)N[C@H](CCCNC(=N)N)C(=O)N[C@H](CC(C)C)C(=O)N[C@H](CCCNC(=N)N)C(=O)N[C@H](CCC(=O)O)C(=O)N[C@H](Cc1ccccc1)C(=O)N[C@H](Cc1ccc(O)cc1)C(=O)NCC(=O)N[C@H](Cc1ccccc1)C(=O)N[C@@H](C(=O)N[C@H](Cc1ccccc1)C(=O)N[C@@H](C(=O)N[C@H](CC(N)=O)C(=O)N[C@H](CCCCN)C(=O)N[C@H](CCCCN)C(=O)N[C@H](CO)C(=O)N[C@H](CCC(N)=O)C(=O)N[C@H](Cc1ccccc1)C(N)=O)C(C)C)C(C)C			0.556 to 1.67
Ac-FQSKKNVFVFGYFERLFAKL-NH2			> 5
Ac-FLSKKNVFVFGYFERLRAKL-NH2			1 to 5
Ac-FQFKKNVFVFGYFERLRAKL-NH2			> 5
CC(=O)N[C@@H](Cc1ccccc1)C(=O)N[C@@H](CCC(N)=O)C(=O)N[C@@H](CO)C(=O)N[C@@H](CCCCN)C(=O)NCC(=O)N[C@@H](CC(N)=O)C(=O)N[C@H](C(=O)N[C@@H](Cc1ccccc1)C(=O)N[C@H](C(=O)N[C@@H](CC(=O)O)C(=O)NCC(=O)NC(C)(C)C(=O)NC(C)(C)C(=O)N[C@@H](C)C(=O)N[C@@H](CCCCN)C(=O)N[C@@H](CC(C)C)C(N)=O)C(C)C)C(C)C (Ac-FQSKGNVFVDG[Aib][Aib]AKL-NH2)			> 5
Ac-FQSKKNVFVFGYFEGLRAKL-NH2			> 5
